# In patent US11434242B2, “Dopamine-b-hydroxylase inhibitors” (BIAL-PORTELA & Cª, S.A., priority 2017, dated 2022):
# Structures can show the parent of a compound that is named as a salt.
# Molecular target: T1, Dopamine beta hydroxylase (Homo sapiens, UniProt P09172)
# T1 construct: 125 μl of plasma; tissue Instituto Português do Sangue Transplantação; host or cells: human plasma from healthy donors
# T1 sequence (P09172 40-617 limits assumed): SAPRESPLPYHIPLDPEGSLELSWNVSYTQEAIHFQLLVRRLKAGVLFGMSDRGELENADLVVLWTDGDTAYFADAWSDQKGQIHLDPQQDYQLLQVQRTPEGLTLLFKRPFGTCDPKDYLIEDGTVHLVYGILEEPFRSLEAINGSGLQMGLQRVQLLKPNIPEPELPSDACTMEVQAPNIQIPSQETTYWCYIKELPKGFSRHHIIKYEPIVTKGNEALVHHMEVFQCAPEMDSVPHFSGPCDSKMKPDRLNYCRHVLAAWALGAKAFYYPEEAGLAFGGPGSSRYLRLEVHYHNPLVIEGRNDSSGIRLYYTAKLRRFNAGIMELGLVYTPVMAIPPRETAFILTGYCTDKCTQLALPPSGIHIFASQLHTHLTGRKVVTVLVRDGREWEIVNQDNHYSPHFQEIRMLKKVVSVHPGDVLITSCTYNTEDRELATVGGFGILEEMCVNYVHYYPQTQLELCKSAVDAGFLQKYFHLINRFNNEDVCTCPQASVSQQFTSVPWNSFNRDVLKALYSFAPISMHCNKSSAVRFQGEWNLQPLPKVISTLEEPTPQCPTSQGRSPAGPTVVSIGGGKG
# Test: Dopamine beta hydroxylase activity in human plasma
# Type: biochemical
# Conditions: for Plasma (0.01 μM), activity in % of control: inhibitor 0.01 μM; for Plasma (0.1 μM), activity in % of control: inhibitor 0.1 μM
# Outline: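 Octopamine production from tyramine over 45 min at 37° C, measured photometrically at 330 nm after SCX extraction and periodate oxidation against an octopamine standard curve, indicates plasma DβH activity. Compounds tested at final 10, 100 and 1000 nM in human plasma, pH 5.0 cofactor buffer, 10 min preincubation; results as % of control.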
smiles,measurement,value
"O=C(CCc1[nH]c(=S)n2c1C[C@H](c1c(F)c(F)cc(F)c1F)C2)NCC1CC1 [Example 203, (R)—N-(cyclopropylmethyl)-3-(6-(2,3,5,6-tetrafluorophenyl)-3-thioxo-2,5,6,7-tetrahydro-3H-pyrrolo[1,2-c]imidazol-1-yl)propanamide]","Plasma (0.01 μM), activity in % of control",95.8 % of control
same,"Plasma (0.1 μM), activity in % of control",75.8 % of control
"O=C(CCc1[nH]c(=S)n2c1C[C@H](c1c(F)c(F)cc(F)c1F)C2)N1CCCC1 [Example 204, (R)-1-(pyrrolidin-1-yl)-3-(6-(2,3,5,6-tetrafluorophenyl)-3-thioxo-2,5,6,7-tetrahydro-3H-pyrrolo[1,2-c]imidazol-1-yl)propan-1-one]","Plasma (0.01 μM), activity in % of control",26.5 % of control
same,"Plasma (0.1 μM), activity in % of control",1.1 % of control
"O=C(CCc1[nH]c(=S)n2c1C[C@H](c1c(F)c(F)cc(F)c1F)C2)N1CCOCC1 [Example 205, (R)-1-morpholino-3-(6-(2,3,5,6-tetrafluorophenyl)-3-thioxo-2,5,6,7-tetrahydro-3H-pyrrolo[1,2-c]imidazol-1-yl)propan-1-one]","Plasma (0.01 μM), activity in % of control",76.9 % of control
same,"Plasma (0.1 μM), activity in % of control",18.2 % of control
"O=C(CCc1[nH]c(=S)n2c1C[C@H](c1c(F)c(F)cc(F)c1F)C2)N1CCC(F)(F)CC1 [Example 206, (R)-1-(4,4-difluoropiperidin-1-yl)-3-(6-(2,3,5,6-tetrafluorophenyl)-3-thioxo-2,5,6,7-tetrahydro-3H-pyrrolo[1,2-c]imidazol-1-yl)propan-1-one]","Plasma (0.01 μM), activity in % of control",22.4 % of control
same,"Plasma (0.1 μM), activity in % of control",8.7 % of control
"O=C(CCc1[nH]c(=S)n2c1C[C@H](c1c(F)c(F)cc(F)c1F)C2)N1CCCCC1 [Example 207, (R)-1-(piperidin-1-yl)-3-(6-(2,3,5,6-tetrafluorophenyl)-3-thioxo-2,5,6,7-tetrahydro-3H-pyrrolo[1,2-c]imidazol-1-yl)propan-1-one]","Plasma (0.01 μM), activity in % of control",76.6 % of control
same,"Plasma (0.1 μM), activity in % of control",30.2 % of control
"CC1CCN(C(=O)CCc2[nH]c(=S)n3c2C[C@H](c2c(F)c(F)cc(F)c2F)C3)CC1 [Example 208, (R)-1-(4-methylpiperidin-1-yl)-3-(6-(2,3,5,6-tetrafluorophenyl)-3-thioxo-2,5,6,7-tetrahydro-3H-pyrrolo[1,2-c]imidazol-1-yl)propan-1-one]","Plasma (0.01 μM), activity in % of control",62.0 % of control
same,"Plasma (0.1 μM), activity in % of control",13.3 % of control
"Fc1cc(F)c(F)c([C@H]2Cc3c(CN4CCOCC4)[nH]c(=S)n3C2)c1F [Example 209, (R)-1-(morpholinomethyl)-6-(2,3,5,6-tetrafluorophenyl)-6,7-dihydro-2H-pyrrolo[1,2-c]imidazole-3(5H)-thione Hydrochloride]","Plasma (0.01 μM), activity in % of control",87.6 % of control
same,"Plasma (0.1 μM), activity in % of control",60.3 % of control
"Cl.Fc1cc(F)c(F)c([C@H]2Cc3c(CN4CCCC4)[nH]c(=S)n3C2)c1F [Example 210, (R)-1-(pyrrolidin-1-ylmethyl)-6-(2,3,5,6-tetrafluorophenyl)-2,5,6,7-tetrahydro-3H-pyrrolo[1,2-c]imidazole-3-thione hydrochloride]","Plasma (0.01 μM), activity in % of control",94.6 % of control
same,"Plasma (0.1 μM), activity in % of control",73.5 % of control
"CN(CCO)Cc1[nH]c(=S)n2c1C[C@H](c1c(F)c(F)cc(F)c1F)C2.Cl [Example 211, (R)-1-(((2-hydroxyethyl)(methyl)amino)methyl)-6-(2,3,5,6-tetrafluorophenyl)-2,5,6,7-tetrahydro-3H-pyrrolo[1,2-c]imidazole-3-thione hydrochloride]","Plasma (0.01 μM), activity in % of control",104.9 % of control
same,"Plasma (0.1 μM), activity in % of control",94.8 % of control
"Fc1cc(F)c(F)c([C@H]2Cc3c(CCc4cccnc4)[nH]c(=S)n3C2)c1F [Example 212, (R)-1-(2-(pyridin-3-yl)ethyl)-6-(2,3,5,6-tetrafluorophenyl)-6,7-dihydro-2H-pyrrolo[1,2-c]imidazole-3(5H)-thione]","Plasma (0.01 μM), activity in % of control",86.5 % of control
same,"Plasma (0.1 μM), activity in % of control",46 % of control
"Fc1cc(F)c(F)c([C@H]2Cc3c(CCc4ccccn4)[nH]c(=S)n3C2)c1F [Example 213, (R)-1-(2-(pyridin-2-yl)ethyl)-6-(2,3,5,6-tetrafluorophenyl)-2,5,6,7-tetrahydro-3H-pyrrolo[1,2-c]imidazole-3-thione]","Plasma (0.01 μM), activity in % of control",105.9 % of control
same,"Plasma (0.1 μM), activity in % of control",66.6 % of control
"Fc1ccc(Br)c(F)c1[C@H]1Cc2c(CCc3cccnc3)[nH]c(=S)n2C1 [Example 214, (R)-6-(3-bromo-2,6-difluorophenyl)-1-(2-(pyridin-3-yl)ethyl)-2,5,6,7-tetrahydro-3H-pyrrolo[1,2-c]imidazole-3-thione]","Plasma (0.01 μM), activity in % of control",109.1 % of control
same,"Plasma (0.1 μM), activity in % of control",72.1 % of control
"Cl.Fc1ccc(Cl)c(F)c1[C@@H]1Cc2c(CCc3cccnc3)[nH]c(=S)n2C1 [Example 215, (S)-6-(3-chloro-2,6-difluorophenyl)-1-(2-(pyridin-3-yl)ethyl)-2,5,6,7-tetrahydro-3H-pyrrolo[1,2-c]imidazole-3-thione Hydrochloride]","Plasma (0.01 μM), activity in % of control",74.3 % of control
same,"Plasma (0.1 μM), activity in % of control",34.2 % of control
"CCOCCCc1[nH]c(=S)n2c1C[C@H](c1c(F)c(F)cc(F)c1F)C2 [Example 216, (R)-1-(3-ethoxypropyl)-6-(2,3,5,6-tetrafluorophenyl)-2,5,6,7-tetrahydro-3H-pyrrolo[1,2-c]imidazole-3-thione]","Plasma (0.01 μM), activity in % of control",84.5 % of control
same,"Plasma (0.1 μM), activity in % of control",47.1 % of control
"Cn1ccnc1CCc1[nH]c(=S)n2c1C[C@H](c1c(F)c(F)cc(F)c1F)C2 [Example 217, (R)-1-(2-(1-methyl-1H-imidazol-2-yl)ethyl)-6-(2,3,5,6-tetrafluorophenyl)-2,5,6,7-tetrahydro-3H-pyrrolo[1,2-c]imidazole-3-thione]","Plasma (0.01 μM), activity in % of control",99.8 % of control
same,"Plasma (0.1 μM), activity in % of control",92.3 % of control
"Fc1cc(F)c(F)c([C@H]2Cc3c(CCc4ccncc4)[nH]c(=S)n3C2)c1F [Example 218, (R)-1-(2-(pyridin-4-yl)ethyl)-6-(2,3,5,6-tetrafluorophenyl)-2,5,6,7-tetrahydro-3H-pyrrolo[1,2-c]imidazole-3-thione]","Plasma (0.01 μM), activity in % of control",89.2 % of control
same,"Plasma (0.1 μM), activity in % of control",69.1 % of control
"O=C(NCc1[nH]c(=S)n2c1C[C@@H](c1c(F)ccc(Cl)c1F)C2)C1CC1 [Example 220, (S)—N-((6-(3-chloro-2,6-difluorophenyl)-3-thioxo-3,5,6,7-tetrahydro-2H-pyrrolo[1,2-c]imidazol-1-yl)methyl)cyclopropanecarboxamide]","Plasma (0.01 μM), activity in % of control",76.5 % of control
same,"Plasma (0.1 μM), activity in % of control",17.7 % of control
"O=C(NCc1[nH]c(=S)n2c1C[C@@H](c1c(F)ccc(Cl)c1F)C2)C1CCCC1 [Example 221, (S)—N-((6-(3-chloro-2,6-difluorophenyl)-3-thioxo-2,5,6,7-tetrahydro-3H-pyrrolo[1,2-c]imidazol-1-yl)methyl)cyclopentanecarboxamide]","Plasma (0.01 μM), activity in % of control",79.3 % of control
same,"Plasma (0.1 μM), activity in % of control",30.0 % of control
"O=C(NCc1[nH]c(=S)n2c1C[C@@H](c1c(F)ccc(Cl)c1F)C2)C1CCOCC1 [Example 222, (S)—N-((6-(3-chloro-2,6-difluorophenyl)-3-thioxo-2,5,6,7-tetrahydro-3H-pyrrolo[1,2-c]imidazol-1-yl)methyl)tetrahydro-2H-pyran-4-carboxamide]","Plasma (0.01 μM), activity in % of control",73.6 % of control
same,"Plasma (0.1 μM), activity in % of control",12.9 % of control
"O=C(NCc1[nH]c(=S)n2c1C[C@@H](c1c(F)ccc(Cl)c1F)C2)c1cccnc1 [Example 223, (S)—N-((6-(3-chloro-2,6-difluorophenyl)-3-thioxo-2,5,6,7-tetrahydro-3H-pyrrolo[1,2-c]imidazol-1-yl)methyl)nicotinamide]","Plasma (0.01 μM), activity in % of control",42.7 % of control
same,"Plasma (0.1 μM), activity in % of control",7.2 % of control
"N#CN/C(N)=N/Cc1[nH]c(=S)n2c1C[C@@H](c1c(F)ccc(Br)c1F)C2 [Example 224, 2-{[(6S)-6-(3-bromo-2,6-difluorophenyl)-3-thioxo-2,5,6,7-tetrahydro-3H-pyrrolo[1,2-c]imidazol-1-yl]methyl}-1-cyanoguanidine]","Plasma (0.01 μM), activity in % of control",22.6 % of control
same,"Plasma (0.1 μM), activity in % of control",0.6 % of control
"N#C/N=C(/NCc1[nH]c(=S)n2c1C[C@@H](c1c(F)ccc(Br)c1F)C2)N1CCCC1 [Example 225, (S,Z)—N-((6-(3-bromo-2,6-difluorophenyl)-3-thioxo-2,5,6,7-tetrahydro-3H-pyrrolo[1,2-c]imidazol-1-yl)methyl)-N′-cyanopyrrolidine-1-carboximidamide]","Plasma (0.01 μM), activity in % of control",65.3 % of control
same,"Plasma (0.1 μM), activity in % of control",12.5 % of control
